# Measurements taken from patent publication US20240165423A1, “METHODS, SYSTEMS AND DEVICES FOR MODULATING CENTRAL NERVOUS SYSTEM INFLAMMATION AND POST-OPERATIVE PAIN” (Arizona Board of Regents on Behalf of the University of …, priority 2021, published 2024).
# System: elderly Sprague-Dawley rats with paw incision surgery
# Conditions: males and females; morphine 1 or 5 mg/kg s.c. 24 h after surgery
smiles,measurement,value
"CN1CC[C@]23c4c5ccc(O)c4O[C@H]2[C@@H](O)C=C[C@H]3[C@H]1C5.O=S(=O)(O)O [morphine, morphine sulfate]",paw withdrawal thresholds of morphine-injected animals compared with saline-injected counterparts,higher than that of their saline-injected counterparts at up to 1.5 hours post-injection
